Consider 2 molecules from publication PMC11645267, “Novel pharmacologic inhibition of lysine-specific demethylase 1 as a potential therapeutic for glioblastoma” (Cancer Gene Therapy, 2024).

One may read the Ki as the equilibrium dissociation constant of an inhibitor or competing ligand from its target. By IC50 is commonly meant the midpoint of a concentration-inhibition curve.

Structures are written as SMILES.

Experiment [1] addresses T1, LSD2 (Homo sapiens, UniProt Q8NB78).
T1 sequence (Q8NB78 1-822): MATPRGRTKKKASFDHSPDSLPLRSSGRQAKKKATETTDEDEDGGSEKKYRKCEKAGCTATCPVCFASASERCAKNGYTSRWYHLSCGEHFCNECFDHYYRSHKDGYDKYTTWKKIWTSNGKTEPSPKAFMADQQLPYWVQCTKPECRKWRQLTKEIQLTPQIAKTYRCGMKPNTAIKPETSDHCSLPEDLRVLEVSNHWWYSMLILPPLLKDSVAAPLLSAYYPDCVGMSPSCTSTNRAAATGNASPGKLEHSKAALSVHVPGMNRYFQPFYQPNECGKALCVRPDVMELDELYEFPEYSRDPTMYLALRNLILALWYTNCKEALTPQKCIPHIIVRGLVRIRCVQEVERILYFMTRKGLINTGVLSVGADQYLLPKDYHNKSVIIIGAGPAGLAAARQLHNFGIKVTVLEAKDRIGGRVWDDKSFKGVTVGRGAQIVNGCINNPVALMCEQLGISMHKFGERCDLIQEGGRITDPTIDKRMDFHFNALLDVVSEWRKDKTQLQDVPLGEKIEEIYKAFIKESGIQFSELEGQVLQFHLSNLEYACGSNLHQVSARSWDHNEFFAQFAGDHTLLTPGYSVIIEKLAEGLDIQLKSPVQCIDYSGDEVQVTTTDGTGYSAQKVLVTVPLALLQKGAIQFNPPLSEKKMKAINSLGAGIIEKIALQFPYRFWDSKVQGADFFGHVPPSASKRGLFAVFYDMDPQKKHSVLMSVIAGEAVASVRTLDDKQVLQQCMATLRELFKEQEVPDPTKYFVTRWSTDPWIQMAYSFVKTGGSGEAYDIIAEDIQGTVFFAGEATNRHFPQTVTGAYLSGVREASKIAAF
On the set-up: method as in PMID 32166890. Particulars: cited from earlier work.

The test system of experiment [2] is GSC1228. Description: Cell proliferation assay (CellTiter-Glo 3D). In kind it is cell-based. Particulars: GSC1228, 96 h; read-out: Growth inhibitory IC50 (GI50). As for the experimental part:
(§1) Supplementary materials and methods […]
(§2) Cell lines and culture conditions […]
(§3) 2013 #1009}{Katsushima, 2016 #1156}. GSC cells were cultured in Neurobasal Medium (Life Technologies, Carlsbad, CA, USA) containing N2 and B27 supplements (Life Technologies) along with human recombinant basic fibroblast growth factor and epidermal growth factor (20 ng/ml each; R&D Systems, Minneapolis, MN, USA). Cells were cultured at 37°C in a humidified incubator with 5% CO2.
(§4) For the cell proliferation assay, cells at a density of 1 × 10^5 cells per well were seeded before treatment with LSD1 inhibitors. Cell proliferation was measured after 4 days using a Cell Counting Kit 8 (Dojindo, Kumamoto, Japan) according to the manufacturer ’s […]
(§5) instructions. For GSC cells, the CellTiter-Glo 3D Viability Assay (Promega, Madison, WI, USA) was used to measure the living cells. […]
In general terms: ATP-based viability assays read luminescence as a measure of living cells.

Experiment [3] concerns GSC222. The experiment can be described thus: Cell proliferation assay (CellTiter-Glo 3D). The format is cell-based. Particulars: GSC222, 96 h; read-out: Growth inhibitory IC50 (GI50). The protocol:
as §1, §2, §3, §4, §5

Experiment [4] has as its system GSC316. The experiment can be described thus: Cell proliferation assay (CellTiter-Glo 3D). In kind it is cell-based. Particulars: GSC316, 96 h; read-out: Growth inhibitory IC50 (GI50). As for the experimental part:
as §1, §2, §3, §4, §5

The target in experiment [5] is T2, MAO-B (Homo sapiens, UniProt P27338).
T2 sequence (P27338 1-520): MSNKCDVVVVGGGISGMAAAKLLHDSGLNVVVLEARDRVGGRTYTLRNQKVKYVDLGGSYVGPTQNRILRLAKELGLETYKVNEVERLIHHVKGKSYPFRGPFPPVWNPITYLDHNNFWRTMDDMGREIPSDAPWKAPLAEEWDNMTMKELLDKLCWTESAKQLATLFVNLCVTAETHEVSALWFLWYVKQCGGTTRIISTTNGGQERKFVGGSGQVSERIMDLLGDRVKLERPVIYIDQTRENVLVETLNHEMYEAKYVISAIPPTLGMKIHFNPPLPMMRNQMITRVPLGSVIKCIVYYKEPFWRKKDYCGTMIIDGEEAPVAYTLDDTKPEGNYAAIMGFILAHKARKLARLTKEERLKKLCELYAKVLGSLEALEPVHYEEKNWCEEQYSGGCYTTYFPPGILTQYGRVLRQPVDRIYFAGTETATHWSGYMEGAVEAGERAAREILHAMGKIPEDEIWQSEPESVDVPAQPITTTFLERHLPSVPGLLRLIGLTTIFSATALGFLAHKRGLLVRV
Particulars: cited from earlier work.

For experiment [6], the target named is T3, MAO-A (Homo sapiens, UniProt P21397).
T3 sequence (P21397 1-527): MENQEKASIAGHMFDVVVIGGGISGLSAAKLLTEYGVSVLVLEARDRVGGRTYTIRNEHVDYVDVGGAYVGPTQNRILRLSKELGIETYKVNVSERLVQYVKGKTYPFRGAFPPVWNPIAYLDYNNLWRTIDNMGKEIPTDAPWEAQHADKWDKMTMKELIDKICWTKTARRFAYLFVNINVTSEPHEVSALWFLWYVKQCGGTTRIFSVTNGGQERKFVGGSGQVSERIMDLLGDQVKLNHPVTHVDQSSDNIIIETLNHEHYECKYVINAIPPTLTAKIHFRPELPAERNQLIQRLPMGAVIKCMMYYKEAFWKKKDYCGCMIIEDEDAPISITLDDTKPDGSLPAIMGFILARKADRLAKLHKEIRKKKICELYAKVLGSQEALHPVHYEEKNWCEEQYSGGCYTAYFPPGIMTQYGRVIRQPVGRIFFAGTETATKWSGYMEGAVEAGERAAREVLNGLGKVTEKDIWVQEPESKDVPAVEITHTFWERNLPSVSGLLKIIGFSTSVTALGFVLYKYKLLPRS
Particulars: cited from earlier work.

Experiment [7] deals with Onda10. Description: Cell proliferation assay (Cell Counting Kit 8). In kind it is cell-based. Particulars: 96 h; Onda10 (grade III glioma), 4 days; read-out: Growth inhibitory IC50 (GI50).
From the text: as §1
(§6) Cell lines and culture conditions
(§7) Glioblastoma cell line, LN229, was obtained from the American Type Culture Collection (ATCC, Manassas, VA, USA). Normal fibroblast cell lines TIG3 and WI-38, TM31 (low grade glioma) were obtained from the RIKEN Bioresource Research Center (Tsukuba, Japan). Onda10 and KINGS1 (low grade glioma) cell lines were obtained from the Japanese Collection of Research Bioresources (Ibaraki, Japan). F3 is utilized as a neural stem cell line{Kim, 2004 #1412}{Natsume, 2013 #1009}. All cells were maintained in DMEM medium (Wako, Osaka, Japan) containing 5% fetal bovine serum (FBS, Thermo Fisher Scientific, Waltham, MA, USA) and 1% penicillin-streptomycin (Wako). […]
as §4, §5
Background: Formazan colour is commonly taken as a measure of viable cells.

For experiment [8], the system named is TM31. The experiment can be described thus: Cell proliferation assay (Cell Counting Kit 8). The format is cell-based. Particulars: 96 h; TM31 (grade III glioma), 4 days; read-out: Growth inhibitory IC50 (GI50).
From the text: as §1, §6, §7, §4, §5

Experiment [9] concerns F3. The experiment can be described thus: Cell proliferation assay (Cell Counting Kit 8). In kind it is cell-based. Particulars: 96 h; F3 (normal neural stem cell line), 4 days; read-out: Growth inhibitory IC50 (GI50).
From the text: as §1, §6, §7, §4, §5

For experiment [10], the system named is TIG3. The experiment can be described thus: Cell proliferation assay (Cell Counting Kit 8). Particulars: Homo sapiens, TIG-3, 96 h; TIG3 (normal fibroblast), 4 days; read-out: Growth inhibitory IC50 (GI50). In kind it is cell-based.
From the text: as §1, §6, §7, §4, §5

The test system of experiment [11] is KINGS1. The experiment can be described thus: Cell proliferation assay (Cell Counting Kit 8). In kind it is cell-based. Particulars: Homo sapiens, KINGS-1, 96 h; KINGS1 (grade III glioma), 4 days; read-out: Growth inhibitory IC50 (GI50).
From the text: as §1, §6, §7, §4, §5

For experiment [12], the system named is LN229. The experiment can be described thus: Cell proliferation assay (Cell Counting Kit 8). In kind it is cell-based. Particulars: Homo sapiens, LN-229, 96 h; LN229 (GBM cell line), 4 days; read-out: Growth inhibitory IC50 (GI50).
From the text: as §1, §6, §7, §4, §5

Experiment [13] deals with WI38. The experiment can be described thus: Cell proliferation assay (Cell Counting Kit 8). In kind it is cell-based. Particulars: Homo sapiens, WI-38, 96 h; WI38 (normal fibroblast), 4 days; read-out: Growth inhibitory IC50 (GI50).
From the text: as §1, §6, §7, §4, §5

Consider `CN1CCN(C(=O)CNC2CC2c2cc(F)cc(F)c2OCc2ccccc2)CC1` (stereo not drawn) [S2157], for which the Ki in [1], in [5] and in [6] was over 250 µM throughout. In addition, the half-inhibitory concentration (IC50) is 19.7 µM in experiment [2]; over 40 µM in [3]; over 40 µM in experiment [4]; over 40 µM in experiment [7]; 27 µM in [8]; 36.5 µM in experiment [9]. In addition, the IC50 was 33.3 µM in [10], over 40 µM in [11], over 40 µM in experiment [12] and over 40 µM in experiment [13].

As to `NC1CC1c1cc(F)cc(F)c1OCc1ccccc1` (stereo not drawn) [S2101], the Ki in [1] was over 250 µM. Moreover, the IC50 was over 40 µM in [2]; over 40 µM in experiment [3]; over 40 µM in experiment [4]; 25 µM in [7]; 6.9 µM in experiment [8]; 26 µM in experiment [9]. Moreover, the IC50 in experiment [10] was over 40 µM; in experiment [11], 19 µM; in [12], 12 µM; in experiment [13] it was over 40 µM.
